# From patent US20100267706A1, “Compounds, Compositions and Methods Comprising Pyridazine Derivatives” (Institute for OneWorld Health, priority 2009, published 2010)
# pIC50: −log10 of the molar value.
# Biological target: T1, CFTR (Homo sapiens, UniProt P13569)
# T1 construct: host or cells: Human colonic T84 cells
# Test: T84 assay (FLIPR membrane potential, forskolin/IBMX-stimulated CFTR channel activity)
# Assay type: cell-based
# Conditions: Human colonic T84 cells; average of at least 2 runs unless annotated n = 1
# Protocol: (§1) For example, Human colonic T84 cells can be acquired from the European Collection of Cell Cultures (ECACC) and grown in standard culture conditions as described by the supplier. On the day before assay 25,000 T84 cells per well are plated into standard black walled, clear bottom 384-well assay plates in standard growth medium consisting of DMEM:F12 with 10% FBS and incubated overnight. On the day of the assay the plates are washed using a standard assay buffer (HBSS with 10 mM Hepes) and incubated for 15 minutes in serum free cell culture medium before the addition of a commercially available membrane potential sensitive fluorescent dye (FLIPR Red membrane potential dye, Molecular Devices Corporation). T84 cells are incubated with the FLIPR Red membrane potential dye for 45 minutes in the presence and absence of test compound before being transferred to a commercially available fluorescence imaging plate reader (FLIPR384, Molecular Devices Corporation). Fluorescence levels are monitored continuously every second for 150 seconds; after an initial 10 second baseline, CFTR channel activity is stimulated through the addition of 10 μM forskolin in the presence of 100 μM of the phosphodiesterase inhibitor iso-butyl-methylxanthine (IBMX). Addition of the forskolin leads to the activation of intracellular adenylyl cylase 1, elevating cAMP levels and results in the phosphorylation and opening of CFTR anion channels. CFTR channel opening causes chloride ion efflux and subsequent depolarization of the cells, which is measured by an increase in fluorescence. CFTR inhibitor compounds prevent cell depolarization and the associated increase in fluorescence.
# as §1, with “Human colonic” for “For example, Human colonic”, “T84 cells are acquired from” for “T84 cells can be acquired from”, “(ECACC) and are grown in” for “(ECACC) and grown in”
# T1 sequence (P13569 whole entry): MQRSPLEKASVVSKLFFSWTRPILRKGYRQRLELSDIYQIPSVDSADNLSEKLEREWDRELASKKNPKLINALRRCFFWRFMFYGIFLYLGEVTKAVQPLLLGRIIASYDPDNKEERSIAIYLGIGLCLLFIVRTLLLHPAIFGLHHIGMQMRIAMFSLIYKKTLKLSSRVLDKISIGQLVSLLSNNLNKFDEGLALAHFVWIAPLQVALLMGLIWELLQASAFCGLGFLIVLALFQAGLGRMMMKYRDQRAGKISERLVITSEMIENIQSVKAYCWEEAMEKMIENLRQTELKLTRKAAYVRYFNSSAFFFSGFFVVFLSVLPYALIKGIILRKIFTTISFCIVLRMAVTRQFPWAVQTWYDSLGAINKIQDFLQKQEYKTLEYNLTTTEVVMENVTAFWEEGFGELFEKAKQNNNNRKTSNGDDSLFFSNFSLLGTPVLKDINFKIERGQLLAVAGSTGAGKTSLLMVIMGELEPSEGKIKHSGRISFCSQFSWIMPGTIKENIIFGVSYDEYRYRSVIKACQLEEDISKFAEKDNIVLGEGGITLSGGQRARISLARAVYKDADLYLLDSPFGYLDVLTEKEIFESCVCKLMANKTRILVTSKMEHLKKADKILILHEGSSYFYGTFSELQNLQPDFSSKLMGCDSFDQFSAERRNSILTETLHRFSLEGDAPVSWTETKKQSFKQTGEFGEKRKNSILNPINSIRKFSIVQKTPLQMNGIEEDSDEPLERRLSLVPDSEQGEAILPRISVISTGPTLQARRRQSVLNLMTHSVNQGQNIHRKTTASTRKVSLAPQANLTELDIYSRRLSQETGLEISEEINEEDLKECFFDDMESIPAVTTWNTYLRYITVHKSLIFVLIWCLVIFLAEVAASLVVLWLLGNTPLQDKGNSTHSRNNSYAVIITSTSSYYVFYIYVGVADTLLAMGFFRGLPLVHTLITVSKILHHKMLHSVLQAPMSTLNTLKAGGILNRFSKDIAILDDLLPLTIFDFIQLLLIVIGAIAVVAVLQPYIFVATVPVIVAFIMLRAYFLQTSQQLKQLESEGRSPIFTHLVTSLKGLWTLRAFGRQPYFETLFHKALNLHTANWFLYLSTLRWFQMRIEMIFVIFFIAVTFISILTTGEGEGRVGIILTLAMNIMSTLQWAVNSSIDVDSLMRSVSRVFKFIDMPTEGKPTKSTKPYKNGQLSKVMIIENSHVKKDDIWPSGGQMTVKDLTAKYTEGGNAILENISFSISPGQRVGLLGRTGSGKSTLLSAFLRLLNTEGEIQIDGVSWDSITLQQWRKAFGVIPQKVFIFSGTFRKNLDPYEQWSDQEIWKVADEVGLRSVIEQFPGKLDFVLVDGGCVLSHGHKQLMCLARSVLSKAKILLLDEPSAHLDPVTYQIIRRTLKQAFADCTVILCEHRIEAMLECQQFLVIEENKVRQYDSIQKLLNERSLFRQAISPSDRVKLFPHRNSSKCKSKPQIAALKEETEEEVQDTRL
row,Compound,pIC50
1,"Oc1c(Cl)cc(-c2cc(N3CCN(Cc4cccc(C(F)(F)F)c4)CC3)c(OCCc3ccc(Cl)cc3)nn2)cc1Cl [Compound 1, 2,6-dichloro-4-(6-(4-chlorophenethoxy)-5-(4-(3-(trifluoromethyl)benzyl)piperazin-1-yl)pyridazin-3-yl)phenol]",4.57
2,"CN(C)CCCOc1ccc(CN2CCN(c3cc(-c4cc(Cl)c(O)c(Cl)c4)nnc3OCCc3ccc(Cl)cc3)CC2)cc1 [Compound 2, 2,6-Dichloro-4-(6-(4-chlorophenethoxy)-5-(4-(4-(3-(dimethylamino)propoxy)benzyl)piperazin-1-yl)pyridazin-3-yl)phenol]",5.74
3,"CS(=O)(=O)Nc1ccc(CNC(=O)c2cc(-c3cc(Cl)c(O)c(Cl)c3)nnc2OCCc2ccc(Cl)cc2)cc1 [Compound 4, 3-(4-Chlorophenethoxy)-6-(3,5-dichloro-4-hydroxyphenyl)-N-(4-(methylsulfonamido)benzyl)pyridazine-4-carboxamide]",4.76
4,"O=C(NCc1ccc(C(F)(F)F)cc1)c1cc(-c2cc(Cl)c(O)c(Cl)c2)nnc1OCCc1ccc(Cl)cc1 [Compound 7, 3-(4-chlorophenethoxy)-6-(3,5-dichloro-4-hydroxyphenyl)-N-(4-(trifluoromethyl)benzyl)pyridazine-4-carboxamide]",4.78
5,"O=C(NCc1cc(F)cc(F)c1)c1cc(-c2cc(Cl)c(O)c(Cl)c2)nnc1OCCc1ccc(Cl)cc1 [Compound 8, 3-(4-chlorophenethoxy)-6-(3,5-dichloro-4-hydroxyphenyl)-N-(3,5-difluorobenzyl)pyridazine-4-carboxamide]",4.89
6,"O=C(NCc1cc(F)c(F)c(F)c1)c1cc(-c2cc(Cl)c(O)c(Cl)c2)nnc1OCCc1ccc(Cl)cc1 [Compound 9, 3-(4-chlorophenethoxy)-6-(3,5-dichloro-4-hydroxyphenyl)-N-(3,4,5-trifluorobenzyl)pyridazine-4-carboxamide]",5.09
7,"O=C(c1cc(-c2cc(Cl)c(O)c(Cl)c2)nnc1OCCc1ccc(Cl)cc1)N(CCO)Cc1ccc(F)cc1 [Compound 10, 3-(4-chlorophenethoxy)-6-(3,5-dichloro-4-hydroxyphenyl)-N-(4-fluorobenzyl)-N-(2-hydroxyethyl)pyridazine-4-carboxamide]",4.92
8,"O=C(c1cc(-c2cc(Cl)c(O)c(Cl)c2)nnc1OCCc1ccc(Cl)cc1)N(CCO)Cc1ccccc1Cl [Compound 12, N-(2-chlorobenzyl)-3-(4-chlorophenethoxy)-6-(3,5-dichloro-4-hydroxyphenyl)-N-(2-hydroxyethyl)pyridazine-4-carboxamide]",4.99
9,"Oc1c(Cl)cc(-c2cc(N3CCN(Cc4ccc(OCCN5CCOCC5)cc4)CC3)c(OCCc3ccc(Cl)cc3)nn2)cc1Cl [Compound 14, 2,6-dichloro-4-(6-(4-chlorophenethoxy)-5-(4-(4-(2-morpholinoethoxy)benzyl)piperazin-1-yl)pyridazin-3-yl)phenol]",5.02
10,"CN(C)CCOc1ccc(CN2CCN(c3cc(-c4cc(Cl)c(O)c(Cl)c4)nnc3OCCc3ccc(Cl)cc3)CC2)cc1 [Compound 15, 2,6-dichloro-4-(6-(4-chlorophenethoxy)-5-(4-(4-(2-(dimethylamino)ethoxy)benzyl)piperazin-1-yl)pyridazin-3-yl)phenol]",5.52
11,"CN(C)CCCOc1cccc(CN2CCN(c3cc(-c4cc(Cl)c(O)c(Cl)c4)nnc3OCCc3ccc(Cl)cc3)CC2)c1 [Compound 16, 2,6-dichloro-4-(6-(4-chlorophenethoxy)-5-(4-(3-(3-(dimethylamino)propoxy)benzyl)piperazin-1-yl)pyridazin-3-yl)phenol]",5.01
12,"Oc1c(Cl)cc(-c2cc(N3CCN(Cc4ccc(OCCCN5CCC(F)(F)CC5)cc4)CC3)c(OCCc3ccc(Cl)cc3)nn2)cc1Cl [Compound 18, 2,6-dichloro-4-(6-(4-chlorophenethoxy)-5-(4-(4-(3-(4,4-difluoropiperidin-1-yl)propoxy)benzyl)piperazin-1-yl)pyridazin-3-yl)phenol]",5.12
13,"CCN(Cc1ccccc1)C(=O)c1cc(-c2cc(Cl)c(O)c(Cl)c2)nnc1N(CC)Cc1ccccc1 [Compound 20, N-benzyl-3-(benzyl(ethyl)amino)-6-(3,5-dichloro-4-hydroxyphenyl)-N-ethylpyridazine-4-carboxamide]",4.92
14,"NC(=O)C1CCN(CCCOc2ccc(CN3CCN(c4cc(-c5cc(Cl)c(O)c(Cl)c5)nnc4OCCc4ccc(Cl)cc4)CC3)cc2)CC1 [Compound 21, 1-(3-(4-((4-(3-(4-chlorophenethoxy)-6-(3,5-dichloro-4-hydroxyphenyl)pyridazin-4-yl)piperazin-1-yl)methyl)phenoxy)propyl)piperidine-4-carboxamide]",5.13
15,"CN1CCN(CCOc2ccc(CN3CCN(c4cc(-c5cc(Cl)c(O)c(Cl)c5)nnc4OCCc4ccc(Cl)cc4)CC3)cc2)CC1 [Compound 22, 2,6-dichloro-4-(6-(4-chlorophenethoxy)-5-(4-(4-(2-(4-methylpiperazin-1-yl)ethoxy)benzyl)piperazin-1-yl)pyridazin-3-yl)phenol]",4.88
16,"COc1cc(CN2CCN(c3cc(-c4cc(Cl)c(O)c(Cl)c4)nnc3OCCc3ccc(Cl)cc3)CC2)ccc1OCCN1CCN(C)CC1 [Compound 23, 2,6-dichloro-4-(6-(4-chlorophenethoxy)-5-(4-(3-methoxy-4-(2-(4-methylpiperazin-1-yl)ethoxy)benzyl)piperazin-1-yl)pyridazin-3-yl)phenol]",5.63
17,"O=C(c1cc(-c2cc(Cl)c(O)c(Cl)c2)nnc1OCCc1ccc(Cl)cc1)N(CCO)Cc1cccnc1 [Compound 24, 3-(4-chlorophenethoxy)-6-(3,5-dichloro-4-hydroxyphenyl)-N-(2-hydroxyethyl)-N-(pyridin-3-ylmethyl)pyridazine-4-carboxamide]",4.71

# The remaining compounds from weak to strong by pIC50, led by results:
row,pIC50,Compound
1,4.54,"CCCN(CCO)C(=O)c1cc(-c2cc(Cl)c(O)c(Cl)c2)nnc1OCCc1ccc(Cl)cc1 [Compound 13, 3-(4-chlorophenethoxy)-6-(3,5-dichloro-4-hydroxyphenyl)-N-(2-hydroxyethyl)-N-propylpyridazine-4-carboxamide]"
2,4.61,"O=C(NCc1cccc(C(F)(F)F)c1)c1cc(-c2cc(Cl)c(O)c(Cl)c2)nnc1OCCc1ccc(Cl)cc1 [Compound 6, 3-(4-chlorophenethoxy)-6-(3,5-dichloro-4-hydroxyphenyl)-N-(3-(trifluoromethyl)benzyl)pyridazine-4-carboxamide]"
3,4.63,"O=C(c1cc(-c2cc(Cl)c(O)c(Cl)c2)nnc1OCCc1ccc(Cl)cc1)N(Cc1ccccc1)CC(F)(F)F [Compound 26, N-benzyl-3-(4-chlorophenethoxy)-6-(3,5-dichloro-4-hydroxyphenyl)-N-(2,2,2-trifluoroethyl)pyridazine-4-carboxamide]"
4,4.74,"O=C(Cc1ccccn1)N1CCN(c2cc(-c3cc(Cl)c(O)c(Cl)c3)nnc2OCCc2ccc(Cl)cc2)CC1 [Compound 3, 1-(4-(3-(4-Chlorophenethoxy)-6-(3,5-dichloro-4-hydroxyphenyl)pyridazin-4-yl)piperazin-1-yl)-2-(pyridin-2-yl)ethanone]"
5,4.77,"Oc1c(Cl)cc(-c2cc(N3CCN(Cc4ccc(OCCCN5CCSCC5)cc4)CC3)c(OCCc3ccc(Cl)cc3)nn2)cc1Cl [Compound 19, 2,6-dichloro-4-(6-(4-chlorophenethoxy)-5-(4-(4-(3-thiomorpholinopropoxy)benzyl)piperazin-1-yl)pyridazin-3-yl)phenol]"
6,4.80,"CCN1CCN(c2cc(-c3cc(Cl)c(O)c(Cl)c3)nnc2OCCc2ccc(Cl)cc2)CC1 [Compound 5, 2,6-dichloro-4-(6-(4-chlorophenethoxy)-5-(4-ethylpiperazin-1-yl)pyridazin-3-yl)phenol]"
7,4.83,"O=C(c1cc(-c2cc(Cl)c(O)c(Cl)c2)nnc1OCCc1ccc(Cl)cc1)N(CCO)Cc1ccccn1 [Compound 25, 3-(4-chlorophenethoxy)-6-(3,5-dichloro-4-hydroxyphenyl)-N-(2-hydroxyethyl)-N-(pyridin-2-ylmethyl)pyridazine-4-carboxamide]"
8,5.42,"CN(C)CCCOc1ccccc1CN1CCN(c2cc(-c3cc(Cl)c(O)c(Cl)c3)nnc2OCCc2ccc(Cl)cc2)CC1 [Compound 17, 2,6-dichloro-4-(6-(4-chlorophenethoxy)-5-(4-(2-(3-(dimethylamino)propoxy)benzyl)piperazin-1-yl)pyridazin-3-yl)phenol]"
